Assay results published in patent US20080227813A1, “Pharmaceutical compositions and methods for treating diseases associated with neurodegeneration” (priority 2006, published 2008).

Columns and labels:
[1] = rat, in vivo
Method: The pharmacokinetic properties of total radioactivity were studied in male and female Wistar rats at the dose of 25.8 mg/kg ^14C labeled Compound I (equal to 16 mg/kg free base) administered intravenously and orally (Study B: Compound I/PRE SK-007). The concentrations of total radioactivity were monitored by liquid scintillation counting and whole-body autoradiographic methods in serum, organs, tissues, and excreta. All parts of the study were performed in both sexes (n=5 in both sexes).

rats = assay: 180-day repeated dose oral toxicity study in rats
Method: A six-month repeated dose oral toxicity study of Compound I was performed in rats involving a control (physiologic saline, n=32/sex) and dose groups of 200 mg/kg/day, 400 mg/kg/day and 900 mg/kg/day (equal to 124 mg/kg, 248 mg/kg and 558 mg/kg free base, n=20/sex, 20/sex and 32/sex, respectively). The test item was dissolved in distilled water. Treatment was carried out by a stomach tube daily. The application volume was adjusted weekly according to the animal's body weight changes.
Clinical observations were made once daily. Body weight and food consumption were measured and evaluated weekly. Urine collection, blood sampling for hematological, clinical chemistry evaluation and gross necropsy were conducted at the end of the treatment period. Full histopathologic examination was performed on the preserved organs and tissues of the vehicle control and high dose groups. In addition, the liver, kidneys, testes, epididymis and organs showing macroscopic alterations were examined microscopically in the low and medium doses.
Compound I content (pre-dose concentration) was determined in serum on days 1, 49, 111 and 173. The serum samples were analyzed by liquid/liquid extraction, and ion-pair HPLC. Twelve animals per sex of the controls and high dose groups were kept alive for a 28-day post-treatment recovery period. They were processed in the same way as animals at the termination of treatment.

CRL:NMRI BR mice [2] = assay: Acute intravenous toxicity in mice; assay type: in vivo; settings: mouse
Method: A control and five dose groups were involved in the mouse study, at dose levels of 200 mg/kg, 250 mg/kg, 300 mg/kg, 360 mg/kg and 450 mg/kg (equal to […], 155 mg/kg, 186 mg/kg, 223 mg/kg and 279 mg/kg free base, n=5 animals/sex/group).

CRL:(WI)BR rats = assay: Acute intraperitoneal toxicity in rats; assay type: in vivo; settings: rat
Method: Acute intraperitoneal toxicity studies were performed in rats (CRL(WI:)BR) and in mice (CRL: NMRI BR).
A control and five dose groups were involved in the rat study at dose levels of 500 mg/kg, 650 mg/kg, 800 mg/kg, 950 mg/kg and 1200 mg/kg (equal to 310 mg/kg, 403 mg/kg, 496 mg/kg, 589 mg/kg and 744 mg/kg free base, n=5 animals/sex/group).

[3] = 28-day repeated dose oral toxicokinetic study in rats; settings: for Tmax: rat, in vivo, po
Method: A 28-day repeated dose oral toxicokinetic study of Compound I was performed in rats involving dose groups of 375 mg/kg, 750 mg/kg and 1500 mg/kg/day (equal to 233 mg/kg, 465 mg/kg and 930 mg/kg free base) (n=5 animals/sex/group). Blood samples were taken after the first and after the last doses to determine the kinetic parameters.

CRL:NMRI BR mice [4] = assay: Acute oral toxicity in mice; assay type: in vivo; settings: mouse
Method: All animal toxicology studies were performed at Toxicological Research Centre (Veszprém, Hungary) using protocols compliant with OECD guidelines and Principles of Good Laboratory Practice. Following is a summary of the studies conducted.
Acute oral toxicity studies were performed in rats (CRL(WI:)BR) and in mice (CRL: NMRI BR). A control and five dose groups were involved in the rat study at dose levels of 2000 mg/kg, 2600 mg/kg, 3400 mg/kg, 4400 mg/kg and 5700 mg/kg (equal to 1241 mg/kg, 1613 mg/kg, […], 2729 mg/kg and 3535 mg/kg free base, n=5 animals/sex/group).

[5] = tested on: healthy young male subjects; assay: Multiple dose safety study in male healthy volunteers; settings: human, 50 or 100 mg tid, 10 days
Method: The study was designed as a randomized, double-blind and single-center study, without therapeutic benefit for the subjects.
The study was performed in 18 healthy subjects divided into 2 groups of 9 subjects (groups A and B). Subjects of group A received 50 mg Compound I as a single dose on the morning of day 1; then 50 mg Compound I tid on days 2 to 9; and a single 50 mg dose on the morning of day 10.
CRL: NMRI BR mice = settings: mouse, 5000 mg/kg
Method: On the basis of acute oral toxicity of test item Compound I in CRL: NMRI BR mice the dose level 5000 mg/kg (equal to 3101 mg/kg free base) was examined in the micronucleus test.

[6] = rat, in vivo; remark: listed apart in the source
[7] = 69 assigned to treatment, 100 mg tid, 6 months
[8] = number of patients, open-label 100 mg tid
[9] = vs placebo cohort of the Celebrex® study (historical control)

Method for patients with ALS: An open label extension study was conducted in patients from Example 23 who completed 12 weeks of treatment and a Week 16 Follow-up Visit. Subjects received 100 mg tid Compound I daily for approximately six months. Visits occurred at Screening, Baseline, and once a month for six months (total of 8 visits). A telephone call at Month 7 ended subject participation in the study.
Disease Progression: There are four main indicators of disease progression that can be measured accurately in these time frames; ALSFRS-R, % VC, weight, and body mass index. The analysis assumed that any subject who dropped out (or died) had the worst possible outcome, based on an analysis by Finkelstein and Schoenfeld (Stat. Med. 1999 18:1341-54). This non-parametric analysis orders outcomes so that subjects who dropped out (or died) were considered to have a worse outcome than subjects who lived. For comparison these characteristics for the placebo group in the Celebrex® trial are included.

[O-][n+]1cccc(/C(Cl)=N/OC[C@H](O)CN2CCCCC2)c1 [Compound I, N-[2-hydroxy-3-(1-piperidinyl)-propoxy]-pyridine-1-oxide-3-carboximidoyl chloride]
safety and tolerability (patients with ALS; 6 month dosing): safe and well tolerated
% Early Study Medication Discontinuation (patients with ALS; [7]): 11.6%
Completed Trial on Treatment (patients with ALS; [7]): 61
Early Study Medication Discontinuation (patients with ALS; [7]): 8
treatment discontinuation: Adverse Event (patients with ALS; [8]): 1
treatment discontinuation: Death (patients with ALS; [8]): 1
treatment discontinuation: Other Reasons (patients with ALS; [8]): 0
treatment discontinuation: Reason not listed (patients with ALS; [8]): 0
treatment discontinuation: Withdrew Consent (patients with ALS; [8]): 6
# Early Study Medication Discontinuations per Month (patients with ALS; over 6-months): 1.33
rate of ALSFRS-R decline (patients with ALS; patients co-administered with riluzole vs without): no apparent difference
progression of Vital Capacity (VC) (patients with ALS; patients treated with riluzole in addition to Compound I vs those not treated with riluzole): appeared to progress more slowly
change in serum creatinine levels (patients with ALS; screening vs 6-month): no significant change
slower decline by % VC (patients with ALS; [9]): 7.6%
slower decline by ALSFRS-R (patients with ALS; [9]): 21.4%
slower decline by BMI (patients with ALS; [9]): 20.4%
slower decline by weight (patients with ALS; [9]): 22.8%
amount of metabolite No. 1 (human hepatocytes): 0.64 % of the total radioactivity
amount of metabolite No. 2 (human hepatocytes): 0.60 % of the total radioactivity
amount of metabolite No. 3 (human hepatocytes): 0.80 % of the total radioactivity
amount of metabolite No. 4 (human hepatocytes): 0.62 % of the total radioactivity
amount of metabolite No. 5 (bimoclomol) (human hepatocytes): 2.59 % of the total radioactivity
clearance (human hepatocytes; human, hepatocytes): 0.040 mL/h
t1/2 (human hepatocytes; human, hepatocytes): 17.2 h
dose eliminated with bile [1]: 20-30 % of dose
dose remaining in the rats [1]: ~20%
radioactivity by 3rd post-treatment hour, share of first measured concentration ([1]; iv, 25.8 mg/kg): 20%
organ radioactivity at 4th hour, share of 45 min values ([1]; po): 20-60%
penetration through the blood-brain barrier ([1]; po): weak penetration through the blood-brain barrier
increase of radioactivity in organs and tissues ([1]; po, 25.8 mg/kg): 4-12 fold
time of first maximal serum concentration of radioactivity ([1]; po, 25.8 mg/kg): ≤ 1 h
total exposure of last day (0-24 h AUD) vs first day ([1]; po, 25.8 mg/kg): more than two times higher
mortality (rats; rat, 200, 400, 900 mg/kg/day oral, six months): No test item related mortality occurred
NOEL (rats; rat, both sexes, six-month oral): 200 mg/kg/day
accumulation in serum (rats; rat, in vivo, po): No accumulation
Intravenous LD50 value (CRL:NMRI BR mice [2]; female, by base): 158 - by base mg/kg
Intravenous LD50 value (CRL:NMRI BR mice [2]; female, by citrate): 254 - by citrate mg/kg
Intravenous LD50 value (CRL:NMRI BR mice [2]; male, by base): 190 (164-223) by base mg/kg
Intravenous LD50 value (CRL:NMRI BR mice [2]; male, by citrate): 307 (265-359) by citrate mg/kg
Intraperitoneal LD50 value (CRL:(WI)BR rats; female, by base): 770 - by base mg/kg
Intraperitoneal LD50 value (CRL:(WI)BR rats; female, by citrate): 1241 - by citrate mg/kg
Intraperitoneal LD50 value (CRL:(WI)BR rats; male, by base): 698 (577-3871) by base mg/kg
Intraperitoneal LD50 value (CRL:(WI)BR rats; male, by citrate): 1125 (931-6241) by citrate mg/kg
Cmax ([3]; male rats, 750 mg/kg/day oral, Day 28): 20410 ng/mL
Tmax ([3]; 375 mg/kg): 1 h
Tmax ([3]; 375 mg/kg/day): 0.5 h
Tmax ([3]; 750 mg/kg): 2 h
Tmax ([3]; 1500 mg/kg): 2 h
Oral LD50 value (CRL:NMRI BR mice [4]; female, by base): >3101 - by base mg/kg
Oral LD50 value (CRL:NMRI BR mice [4]; female, by citrate): >5000 - by citrate mg/kg
Oral LD50 value (CRL:NMRI BR mice [4]; male, by base): >3101 - by base mg/kg
Oral LD50 value (CRL:NMRI BR mice [4]; male, by citrate): >5000 - by citrate mg/kg
serious adverse events or deaths [5]: no serious adverse events or deaths
mutagenicity in vivo (CRL: NMRI BR mice): non-mutagenic
number of micronucleated polychromatic erythrocytes (MPCEs) (CRL: NMRI BR mice; in vivo): did not induce a significant increase
amount of metabolite No. 1 (rat hepatocytes): 0.32 % of the total radioactivity
amount of metabolite No. 2 (rat hepatocytes): 1.89 % of the total radioactivity
amount of metabolite No. 3 (rat hepatocytes): 47.7 % of the total radioactivity
amount of metabolite No. 4 (rat hepatocytes): 15.1 % of the total radioactivity
clearance (rat hepatocytes; rat, hepatocytes): 0.84 mL/h
t1/2 (rat hepatocytes; rat, hepatocytes): 0.82 h
amount of metabolite No. 3 (dog liver cells): 4.9 % of the total radioactivity
amount of metabolite No. 4 (dog liver cells): 3.3 % of the total radioactivity
clearance (dog liver cells; dog, hepatocytes): 0.055 mL/h
t1/2 (dog liver cells; dog, hepatocytes): 12.6 h
clearance [6]: higher than the hepatic clearance
time of peak serum values ([6]; po, 25.8 mg/kg): 15 min
